Read-outs that look alike come from different tables or passages of the source.
Experiments:
Venturia inaegualis = assay: Assay B-5: Residual protective activity against Venturia inaegualis on apples (scab on apple); type: in vivo; conditions: Venturia inaegualis on apple seedlings cv. McIntosh; 0.02% active substance, spray
Experimental: Assay B-5: Residual Protective Activity Against Venturia inaegualis on Apples (Scab on Apple) 4 week old apple seedlings cv. McIntosh are treated with the formulated testcompound (0.02% active substance) in a spray chamber. One day after application apple plants are inoculated by spraying a spore suspension (4×10^5 conidia/ml) on the test plants. After an incubation period of 4 days at 21° C. and 95% r. h. the plants are placed for 4 days at 21° C. and 60% r. h. in a greenhouse. After another 4 day incubation period at 21° C. and 95% r. h. the disease incidence is assessed.

Botrytis cinerea [1] = assay: Assay B-7: Botrytis cinerea/grape (Botrytis on grapes); type: in vivo; conditions: Botrytis cinerea on grape seedlings cv. Gutedel; 0.02% active substance, spray
Experimental: Assay B-7: Botrytis cinerea/Grape (Botrytis on Grapes) 5 week old grape seedlings cv. Gutedel are treated with the formulated testcompound (0.02% active substance) in a spray chamber. Two days after application grape plants are inoculated by spraying a spore suspension (1×10^6 conidia/ml) on the test plants. After an incubation period of 4 days at 21° C. and 95% r. h. in a greenhouse the disease incidence is assessed.

Botrytis cinerea [2] = assay: Assay B-8: Effect against Botrytis cinerea/tomato (Botrytis on tomatoes); type: in vivo; conditions: Botrytis cinerea on tomato cv. Roter Gnom; 0.02% active substance, spray
Experimental: Assay B-8: Effect Against Botrytis cinerea/Tomato (Botrytis on Tomatoes) 4 week old tomato plants cv. Roter Gnom are treated with the formulated testcompound 0.02% active substance) in a spray chamber. Two days after application tomato plants are inoculated by spraying a spore suspension (1×10^5 conidia/ml) on the test plants. After an incubation period of 4 days at 20° C. and 95% r. h. in a greenhouse the disease incidence is assessed.

[3] = tested on: Pyrenophora teres (Helminthosporium); assay: Assay B-10: Effect against Pyrenophora teres (Helminthosporium)/barley (net blotch on barley); type: in vivo; conditions: Pyrenophora teres on barley cv. Regina, 0.02% active substance, spray
Method in brief: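 One-week-old barley cv. Regina sprayed with formulated compound at 0.02% active substance, then inoculated 2 days later with 3×10^4 conidia/ml. Held 2 days at 20° C/95% r.h., then 2 days at 20° C/60% r.h.; disease incidence scored 4 days after inoculation.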

Fusarium culmorum = type: in vivo
Septoria nodorum = assay: Assay B-12: Effect against Septoria nodorum/wheat (Septoria leaf spot on wheat); type: in vivo; conditions: Septoria nodorum on wheat cv. Arina, 0.02% active substance, spray
Erysiphe graminis = assay: Assay B-6: Effect against Erysiphe graminis on barley (powdery mildew); residual protective / systemic activity; type: in vivo; conditions: 0.02% active substance spray (residual) or 0.002% soil (systemic), variant not stated
Experimental: Assay B-6: Effect Against Erysiphe graminis on Barley (Powdery Mildew on Barley) a) Residual Protective Activity […] The infected plants are placed in a greenhouse at 22°. 12 days after infection, the fungal attack is evaluated. b) Systemic Activity […] […] 48 hours later, the plants are dusted with conidia of the fungus. The infected plants are placed in a greenhouse at 22° C. 12 days after infection, the disease incidence is evaluated.

Pyricularia oryzae = type: in vivo; conditions: Pyricularia oryzae on rice cv. Sasanishiki; 0.02% active substance, spray
[4] = Fusarium culmorum, wheat seeds cv. Orestis in pouch, 0.002% active substance

CCC(CO)Nc1cc(-c2ccnc(Nc3cccc(Cl)c3)n2)ccn1 (stereo not drawn) [Compound 31]
B5 activity (Venturia inaegualis): + (the activity observed in the corresponding test system is 70% or more) | B7 activity (Botrytis cinerea [1]): + (the activity observed in the corresponding test system is 70% or more) | B8 activity (Botrytis cinerea [2]): + (the activity observed in the corresponding test system is 70% or more) | B10 activity [3]: + (the activity observed in the corresponding test system is 70% or more) | B11 activity (Fusarium culmorum; in vivo): + (key: +: the activity observed in the corresponding test system is 70% or more)

CC(C)Nc1cc(-c2ccnc(Nc3cccc(Cl)c3)n2)ccn1 [Compound 68]
B8 activity (Botrytis cinerea [2]): + (the activity observed in the corresponding test system is 70% or more) | pest or weed control at 0.02 % strength ([3]; 96 h, read-out: B10 activity): > 70% | B11 activity (Fusarium culmorum; [4]): + (the activity observed in the corresponding test system is 70% or more) | pest or weed control at 0.02 % strength (Septoria nodorum; Parastagonospora nodorum, 264 h, read-out: B12 activity): > 70% | melting point: 184 to 185 °C

CCC(COC)Nc1cc(-c2ccnc(Nc3cccc(Cl)c3)n2)ccn1 (stereo not drawn) [Compound 4]
B6 activity (Erysiphe graminis): + (the activity observed in the corresponding test system is 70% or more) | B8 activity (Botrytis cinerea [2]): + (the activity observed in the corresponding test system is 70% or more) | B9 activity (Pyricularia oryzae): + (the activity observed in the corresponding test system is 70% or more) | B11 activity (Fusarium culmorum; in vivo): + (key: +: the activity observed in the corresponding test system is 70% or more) | B12 activity (Septoria nodorum): + (the activity observed in the corresponding test system is 70% or more)

CC(=O)Nc1cc(-c2ccnc(Nc3cccc(Cl)c3)n2)ccn1 [Compound 61]
B11 activity (Fusarium culmorum; [4]): + (the activity observed in the corresponding test system is 70% or more) | melting point: 245 to 247 °C

CC(=Nc1cc(-c2ccnc(Nc3cccc(Cl)c3)n2)ccn1)N(C)C [Compound 66]
B5 activity (Venturia inaegualis): + (the activity observed in the corresponding test system is 70% or more) | B7 activity (Botrytis cinerea [1]): + (the activity observed in the corresponding test system is 70% or more) | B8 activity (Botrytis cinerea [2]): + (the activity observed in the corresponding test system is 70% or more) | B9 activity (Pyricularia oryzae): + (the activity observed in the corresponding test system is 70% or more) | B10 activity [3]: + (the activity observed in the corresponding test system is 70% or more) | B11 activity (Fusarium culmorum; in vivo): + (key: +: the activity observed in the corresponding test system is 70% or more) | B12 activity (Septoria nodorum): + (the activity observed in the corresponding test system is 70% or more)

Source: patent US7109197B2, “N-phenyl-4-(4-pyridyl)-2-pyrimidineamine derivatives” (Syngenta Crop Protection, Inc., priority 2000, dated 2006)
